Values quoted from earlier work as cited in paper PMC6650409, “Modeling the binding of diverse ligands within the Ah receptor ligand binding domain” (Scientific Reports, 2019).

Assays:
[1] = tested on: zebrafish AhR1a (zfAhR1a); details: cited from earlier work
AhR = tested on: AhR; design: method as in PMID 21981577; details: in words; cited from earlier work
mAhR = target: T1, mAhR (Mus musculus, UniProt P30561); design: method as in PMID 21981577; details: in words; cited from earlier work
T1 construct: made in house; host or cells: in vitro, Promega TNT Quick coupled transcription/translation rabbit reticulocyte lysate
T1 sequence (P30561 10-848): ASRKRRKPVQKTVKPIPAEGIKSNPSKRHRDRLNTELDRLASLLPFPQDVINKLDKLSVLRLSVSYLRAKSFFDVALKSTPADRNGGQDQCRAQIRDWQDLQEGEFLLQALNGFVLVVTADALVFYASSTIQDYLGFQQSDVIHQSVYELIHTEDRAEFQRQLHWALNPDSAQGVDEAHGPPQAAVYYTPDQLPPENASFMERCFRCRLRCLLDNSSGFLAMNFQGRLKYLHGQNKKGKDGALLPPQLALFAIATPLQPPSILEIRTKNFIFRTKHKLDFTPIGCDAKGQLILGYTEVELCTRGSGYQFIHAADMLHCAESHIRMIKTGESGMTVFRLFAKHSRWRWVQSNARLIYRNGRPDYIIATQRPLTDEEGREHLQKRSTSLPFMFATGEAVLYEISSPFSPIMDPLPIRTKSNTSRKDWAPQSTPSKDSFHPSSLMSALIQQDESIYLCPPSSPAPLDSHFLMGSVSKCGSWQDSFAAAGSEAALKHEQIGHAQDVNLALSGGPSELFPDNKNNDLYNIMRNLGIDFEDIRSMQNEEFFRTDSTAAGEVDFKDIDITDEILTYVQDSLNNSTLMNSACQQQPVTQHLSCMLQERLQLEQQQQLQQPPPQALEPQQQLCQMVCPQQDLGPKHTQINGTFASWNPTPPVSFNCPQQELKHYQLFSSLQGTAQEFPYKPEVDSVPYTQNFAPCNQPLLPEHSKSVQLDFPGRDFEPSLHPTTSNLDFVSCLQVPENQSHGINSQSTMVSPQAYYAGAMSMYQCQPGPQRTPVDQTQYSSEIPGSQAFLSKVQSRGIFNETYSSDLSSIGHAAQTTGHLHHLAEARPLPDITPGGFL

| SMILES | ligand binding to zfAhR1a [1] | AhR agonist activity (AhR) | displacement of [3H]TCDD specific binding to the mAhR (mAhR) |
| --- | --- | --- | --- |
| Cc1oncc1C(=O)Nc1ccc(C(F)(F)F)cc1 [LEFL, Leflunomide] | could still bind and be activated | – | – |
| O=[N+]([O-])c1cc(C(F)(F)F)ccc1NCc1ccsc1 [THS-017] | – | acted as AhR agonists | could competitively displace |
| O=[N+]([O-])c1cc(C(F)(F)F)ccc1NCc1ccco1 [THS-020] | – | acted as AhR agonists | could competitively displace |
